Reference: patent US20070276011A1, “Plasminogen Activator Inhibitor-1 Inhibitor” (priority 2003, published 2007)

Molecular target: recombinant human PAI-1 (Homo sapiens, UniProt P05121)
Test: PAI-1 inhibitory activity, Test Method A (tPA fluorogenic substrate, Tris buffer pH8.0, 37 C)
Assay type: biochemical
Settings: for Inhibitory Ratio at 25 μM (%): Test Method A; for IC50: 50% inhibitory concentration of PAI-1 activity, according to the aforementioned method

Sequence of recombinant human PAI-1 (P05121 24-402): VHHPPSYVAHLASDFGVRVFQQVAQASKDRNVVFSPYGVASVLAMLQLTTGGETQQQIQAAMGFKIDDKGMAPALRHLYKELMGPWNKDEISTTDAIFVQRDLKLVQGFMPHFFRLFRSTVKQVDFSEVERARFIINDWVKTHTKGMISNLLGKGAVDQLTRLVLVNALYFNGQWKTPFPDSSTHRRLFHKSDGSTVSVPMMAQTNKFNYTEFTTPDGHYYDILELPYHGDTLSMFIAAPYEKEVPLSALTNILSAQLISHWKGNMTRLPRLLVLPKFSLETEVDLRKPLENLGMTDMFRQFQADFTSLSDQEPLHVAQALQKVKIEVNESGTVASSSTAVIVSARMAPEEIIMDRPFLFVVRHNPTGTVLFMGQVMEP

Structure (SMILES)	Inhibitory Ratio at 25 μM (%) (25 μM test compound)	also measured
O=C(O)c1cccc(N2N=C(c3ccccc3)C(=Cc3ccc(-c4cc(Cl)cc(Cl)c4)o3)C2=O)c1 [compound 216]		Inhibitory Ratio at 25 μM (%) (test compound 25 μM): 94%
O=C(O)c1cccc(N2N=C(c3ccccc3)C(=Cc3ccc(-c4cc(C(F)(F)F)cc(C(F)(F)F)c4)o3)C2=O)c1 [compound 217]		Inhibitory Ratio at 25 μM (%) (test compound 25 μM): >99%
O=C(O)c1cccc(N2N=C(C(F)(F)F)C(=Cc3ccc(-c4cc(Cl)cc(Cl)c4)o3)C2=O)c1 [compound 218]		Inhibitory Ratio at 25 μM (%) (test compound 25 μM): 95%
O=C(O)c1ccc(Cl)c(-c2ccc(C=C3C(=O)N(c4cccc(C(F)(F)F)c4)N=C3O)o2)c1 [compound 220]		Inhibitory Ratio at 25 μM (%) (test compound 25 μM): >99%
O=C1C(=Cc2ccc(O)c(O)c2)C(c2ccccc2)=NN1c1ccc(Cl)c(Cl)c1 [compound 221]		Inhibitory Ratio at 25 μM (%) (test compound 25 μM): >99%
CC(C)C1=NN(c2ccc(Cl)nc2)C(=O)C1=Cc1cc(O)c(O)cc1O [compound 222, 4-(2,4,5-Trihydroxybenzylidene)-1-(2-chloropyridin-5-yl)-3-isopropyl-2-pyrazolin-5-one]		Inhibitory Ratio at 25 μM (%) (test compound 25 μM): 79%
CCOC1=NN(c2ccc([N+](=O)[O-])cc2)C(=O)C1=Cc1cc(O)c(O)cc1O [compound 223]		Inhibitory Ratio at 25 μM (%) (test compound 25 μM): 88%
CC1=NN(c2ccc(Cl)cc2)C(=O)C1=Cc1cc(O)c(O)cc1O [compound 224]		Inhibitory Ratio at 25 μM (%) (test compound 25 μM): 69%
O=C(Nc1ccccc1)c1ccc(CN2C(=O)SC(=Cc3ccc(O)c(O)c3)C2=O)cc1 [compound 301, 5-(3,4-Dihydroxybenzylidene)-3-[4-(phenylcarbamoyl)benzyl]thiazolidine-2,4-dione]	>99	
O=C1SC(=Cc2ccc(O)c(O)c2)C(=O)N1Cc1ccc(Nc2ccccc2)cc1 [compound 302, 5-(3,4-Dihydroxybenzylidene)-3-[4-(phenylamino)benzyl]thiazolidine-2,4-dione]	>99	
O=C1C(=Cc2cc(O)c(O)c(O)c2)SC(=S)N1Cc1ccc(Cl)c(Cl)c1 [compound 303]	>99	IC50: 390 nM
O=C1SC(=Cc2ccc(O)c(O)c2)C(=O)N1Cc1cnc(Cl)c(Cl)c1 [compound 304, 5-(3,4-Dihydroxybenzylidene)-3-[(5,6-dichloropyridin-3-yl)-methyl]thiazolidine-2,4-dione]	>99	
O=C1SC(=Cc2ccc(O)c(O)c2)C(=O)N1Cc1cc(C(F)(F)F)ccc1C(F)(F)F [compound 305, 5-(3,4-Dihydroxybenzylidene)-3-[2,5-bis(trifluoromethyl)benzyl]-thiazolidine-2,4-dione]	>99	
O=C1C(=Cc2ccc(O)c(O)c2)SC(=S)N1Cc1ccc(C=Cc2ccccc2)cc1 [compound 306, 5-(3,4-Dihydroxybenzylidene)-3-(4-styrylbenzyl)rhodanine]	>99	
O=C1C(=Cc2ccc(O)c(O)c2)SC(=S)N1Cc1ccc(C(F)(F)F)cc1 [compound 307, 5-(3,4-Dihydroxybenzylidene)-3-[4-(trifluoromethyl)benzyl]rhodanine]	>99	IC50: 580 nM
O=C1SC(=Cc2ccc(Oc3ccccc3)cc2)C(=O)N1Cc1cc(O)c(O)c(O)c1 [compound 308, 5-(4-Phenoxybenzylidene)-3-(3,4,5-trihydroxybenzyl)thiazolidine-2,4-dione]	98	

Structure (SMILES)	Inhibitory Ratio at 25 μM (%) (25 μM test compound)	also measured
O=C1SC(=Cc2cccc(O)c2O)C(=O)N1Cc1ccc(Nc2ccccc2)cc1 [compound 309]	>99	
O=C1SC(=Cc2cccc(Oc3ccccc3)c2)C(=O)N1Cc1cc(O)c(O)c(O)c1 [compound 310, 5-(3-Phenoxybenzylidene)-3-(3,4,5-trihydroxybenzyl)thiazolidine-2,4-dione]	>99	
O=C(Cc1ccccc1)Nc1ccc(CN2C(=O)SC(=Cc3cccc(O)c3O)C2=O)cc1 [compound 313, 5-(2,3-Dihydroxybenzylidene)-3-[4-(phenylacetylamino)benzyl]-thiazolidine-2,4-dione]	73	
O=C(CCc1ccccc1)Nc1ccc(CN2C(=O)SC(=Cc3cccc(O)c3O)C2=O)cc1 [compound 314, 5-(2,3-Dihydroxybenzylidene)-3-[4-(3-phenylpropionylamino)benzyl]-thiazolidine-2,4-dione]	>99	
O=C(CCc1ccccc1)Nc1ccc(CN2C(=O)SC(=Cc3ccc(O)c(O)c3)C2=O)cc1 [compound 315]	39	
O=C1SC(=Cc2ccc(O)c(O)c2)C(=O)N1Cc1cccc(Nc2ccccc2)c1 [compound 318, 5-(3,4-Dihydroxybenzylidene)-3-[3-(phenylamino)benzyl]thiazolidine-2,4-dione]	>99	
O=C1SC(=Cc2cccc(O)c2O)C(=O)N1Cc1cccc(Nc2ccccc2)c1 [compound 319]	>99	
O=C(Cc1cccc(Oc2ccccc2)c1)Nc1cccc(CN2C(=O)SC(=Cc3ccc(O)c(O)c3)C2=O)c1 [compound 321]	>99	
O=C1SC(=Cc2cc(C=Cc3ccccc3)ccc2O)C(=O)N1Cc1ccc(Cl)c(Cl)c1 [compound 322, 5-(2-Hydroxy-5-styrylbenzylidene)-3-(3,4-dichlorobenzyl)thiazolidine-2,4-dione]	89	
COc1ccc(C=C2SC(=O)N(Cc3ccc(Cl)c(Cl)c3)C2=O)cc1O [compound 323]	21	
O=C1SC(=Cc2cc(O)c3c(c2)OCO3)C(=O)N1Cc1ccc(Cl)c(Cl)c1 [compound 324]	65	
O=C1SC(=Cc2ccc(F)c(O)c2)C(=O)N1Cc1ccc(Cl)c(Cl)c1 [compound 326]	66	
COc1cc(C=C2SC(=O)N(Cc3ccc(Cl)c(Cl)c3)C2=O)ccc1Cl [compound 327, 5-(3-methoxy-4-chlorobenzylidene)-3-(3,4-dichlorobenzyl)-thiazolidine-2,4-dione]	61	
O=C1SC(=Cc2ccc(Cl)c(O)c2)C(=O)N1Cc1ccc(Cl)c(Cl)c1 [compound 328]	63	
O=C1SC(=Cc2ccc3c(c2)OCO3)C(=O)N1Cc1ccc(Cl)cc1Cl [compound 336]	61	
O=C1SC(=Cc2cc([O-])c([O-])c(O)c2)C(=O)N1Cc1ccc(Cl)c(Cl)c1.[Na+].[Na+] [compound 338]	85	

More lines, main results first:

Inhibitory Ratio at 25 μM (%) (25 μM test compound)	Structure (SMILES)	also measured
34	COc1c(O)cccc1C=C1SC(=O)N(Cc2ccc(Cl)c(Cl)c2)C1=O [compound 329]	
35	COc1ccc(C=C2SC(=O)N(Cc3ccc(Cl)c(Cl)c3)C2=O)cc1F [compound 331, 5-(3-fluoro-4-methoxybenzylidene)-3-(3,4-dichlorobenzyl)-thiazolidine-2,4-dione]	
>99	O=C1SC(=Cc2ccc(O)c(F)c2)C(=O)N1Cc1ccc(Cl)c(Cl)c1 [compound 332]	
73	COc1ccc(C=C2SC(=O)N(Cc3ccc(Cl)c(Cl)c3)C2=O)cc1C(F)(F)F [compound 333]	
>99	N=C(N)NCCC[C@H](N)C(=O)O.N=C(N)NCCC[C@H](N)C(=O)O.O=C1SC(=Cc2ccc(O)c(O)c2)C(=O)N1Cc1ccc(Cl)cc1Cl [compound 335, di(L-(+)-arginine) salt of 5-(3,4-dihydroxybenzylidene)-3-(2,4-dichlorobenzyl)thiazolidine-2,4-dione]	
43	CCOC(=O)Oc1ccc(C=C2SC(=O)N(Cc3ccc(Cl)cc3Cl)C2=O)cc1OC(=O)OCC [compound 337]	
>99	O=C1SC(=Cc2ccc([O-])c([O-])c2)C(=O)N1Cc1ccc(Cl)cc1Cl.[Na+].[Na+] [compound 339]	
56	CCOC(=O)Oc1cc(C=C2SC(=O)N(Cc3ccc(Cl)c(Cl)c3)C2=O)cc(OC(=O)OCC)c1OC(=O)OCC [compound 340]	
>99	COC(=O)c1cc(C=C2SC(=O)N(Cc3ccc(Cl)cc3Cl)C2=O)cc(O)c1O [compound 341, 5-[3,4-Dihydroxy-5-(methoxycarbonyl)benzylidene]-3-(2,4-dichlorobenzyl)thiazolidine-2,4-dione]	
37	COC(=O)c1c(O)cc(C=C2SC(=O)N(Cc3ccc(Cl)cc3Cl)C2=O)cc1O [compound 342, 5-[3,5-Dihydroxy-4-(methoxycarbonyl)benzylidene]-3-(2,4-dichlorobenzyl)thiazolidine-2,4-dione]	
71	COC(=O)c1cc(C=C2SC(=O)N(Cc3ccc(Cl)c(Cl)c3)C2=O)cc(OC)c1O [compound 343, 5-[3-methoxy-4-hydroxy-5-(methoxycarbonyl)benzylidene]-3-(3,4-dichlorobenzyl)thiazolidine-2,4-dione]	
>99	COC(=O)c1cc(C=C2SC(=O)N(Cc3ccc(Cl)c(Cl)c3)C2=O)cc(O)c1O [compound 344]	
89	COc1cc(C=C2SC(=O)N(Cc3ccc(Cl)c(Cl)c3)C2=O)cc(C(=O)O)c1O [compound 345, 5-(3-Methoxy-4-hydroxy-5-carboxybenzlidene)-3-(3,4-dichlorobenzyl)thiazolidine-2,4-dione]	
>99	COc1cc(C=C2SC(=O)N(Cc3ccc(Cl)c(Cl)c3)C2=O)cc([N+](=O)[O-])c1O [compound 346, 5-(3-methoxy-4-hydroxy-5-nitrobenzylidene)-3-(3,4-dichlorobenzyl)thiazolidine-2,4-dione]	
44	COc1cc(C=C2SC(=O)N(Cc3ccc(Cl)c(Cl)c3)C2=O)cc(OC)c1OC [compound 348]	
54	COc1ccc(NC(=O)c2cc(C=C3SC(=O)N(Cc4ccc(Cl)c(Cl)c4)C3=O)ccc2O)cc1OC [compound 351, 5-[4-Hydroxy-3-(3,4-dimethoxyphenylcarbamoyl)benzylidene]-3-(3,4-dichlorobenzyl)thiazolidine-2,4-dione]	
66	COc1ccc(NC(=O)c2cc(C=C3SC(=O)N(Cc4ccc(Cl)c(Cl)c4)C3=O)ccc2O)cc1 [compound 353, 5-[4-hydroxy-3-(4-methoxyphenylcarbamoyl)benzylidene]-3-(3,4-dichlorobenzyl)thiazolidine-2,4-dione]	
